Values quoted from earlier work, collected in patent publication US20130035357A1, “Compositions and Methods for Preventing Joint Destruction in Osteoarthritis” (TRUSTEES OF DARTMOUTH COLLEGE, priority 2010, published 2013).

Columns and labels:
[1] = tested on: retinoid acid receptors (RARs; e.g., RARα, RARβ, and RARγ)
[2] = tested on: IL-1β-stimulated SW-1353 cells
[3] = tested on: RXRα, RXRβ, and RXRγ receptors
[4] = human chondrocytic cells in vitro
[5] = in vitro, by decreasing the transcription rate of the gene

SMILES: C=C(c1ccc(C(=O)O)cc1)c1cc2c(cc1C)C(C)(C)CCC2(C)C [Bexarotene, bexarotene]
- activity to bind retinoid acid receptors and to transactivate the related RAR genes [1]: negligible activity

SMILES: Cc1cc2c(cc1C1(c3ccc(C(=O)O)cn3)CC1)C(C)(C)CCC2(C)C [LG268]
- production of mRNA and protein for MMP-1 (MMP-1; [4]): inhibit
- inhibition of proinflammatory cytokine-induced upregulation of MMP-1 (MMP-1; [5]): inhibit
- production of mRNA and protein for MMP-13 (MMP-13; [4]): inhibit
- inhibition of proinflammatory cytokine-induced upregulation of MMP-13 (MMP-13; [5]): inhibit
- breakdown of collagen by the cells [2, 4]: prevented breakdown of collagen
- ability of IL-1β-stimulated SW-1353 cells to degrade collagen matrix ([2]; in vitro): blunt
- potency as an RXR agonist relative to bexarotene ([3]; compared with bexarotene): almost an order of magnitude more potent than bexarotene
- potency as an agonist across RXRα, RXRβ, and RXRγ receptors ([3]; comparison between the three RXR subtypes): equal potency
